# From patent US11440932B2, “Surfactant compounds-clips for extraction and stabilization in solution of membrane proteins” (CENTRE NATIONAL DE LA RECHERCHE SCIENTIFIQUE, priority 2017, dated 2022)
# Tests used:
# [1] = Diameter of micelles by dynamic light scattering (DLS); assay type: physicochemical; conditions: estimated micelle diameter by DLS; 30 mM tris-HCl, pH 8.0
# Experimental: FIG. 5 depicts the dynamic light scattering (DLS) of clips, in intensity (%, column A on the left) and in number (%, column B on the right), as a function of the […] (nm). The estimated diameters are indicated on each panel (column A). Columns A and B, from top to bottom: compound 3.7c (10 mM, 5×CMC), compound 3.7d (10 mM, 5×CMC), compound 3.7e (2 mM, […]), compound 3.7f (10 mM, 500×CMC), compound 3.7h (1 mM, 100×CMC), compound 3.7j (2 mM, 100×CMC), compound 3.9a (1 mM, 50×CMC).
# Another physicochemical parameter of the micelles of detergents is their diameter, assuming that they are spherical. This dimension is obtained by the light scattering (DLS) technique.
# Procedure. The molecules of the invention tested were prepared in a range of concentrations extending from 0.1 to 1000×CMC in 30 mM tris-HCl, pH 8.0 and neutralized at this pH. The solutions are filtered on 0.22 μm. The measurement is carried out on 100 μl, in triplicate on a Zetasizer Nano-S from Malvern Instruments.
# [2] = Critical micelle concentration (CMC) by DPH fluorescence; assay type: physicochemical; conditions: for CMC: 50 mM tris-HCl, pH 8.0
# Experimental: FIG. 4 represents the fluorescence (%) of DPH (1,6-diphenyl-1,3,5-hexatriene) in the presence of increasing concentrations (0.0001 mM, 0.001 mM, 0.01 mM, 0.1 mM, 1 mM and 10 mM) of clips (compounds of the invention), exemplified with the compounds #3.7e (C13, points represented by squares) and 3.7f (C18, points represented by circles). The experiment is carried out in triplicates. In accordance with Chattopadhyay, A. & London, E ([22]), the CMC corresponds to the concentration at which the breakage in the slope is observed, here at 20 μM for 3.7f and 2 mM for 3.7e (black symbols).
# Procedure. The molecules of the invention were prepared in a range of concentrations extending from 0.1 μM to 10 mM in 50 mM tris-HCl, pH 8.0 and neutralized at this pH. To 80 μl of each solution (triplicate), the same volume of 10 μM of 1,6-diphenyl-1,3,5-hexatriene (DPH, Sigma, D208000) is added, prepared at 100 μM in tetrahydrofuran then diluted 10-fold in H2O. The increase in the fluorescence of the DPH occurs when the latter find micelles of clips into which it can insert itself (Chattopadhyay, A. & London, E. Fluorimetric determination of critical micelle concentration avoiding interference from detergent charge. Anal Biochem 139, 408-412 (1984) ([22])). The fluorescence is read with a Xenius SAFAS fluorimeter by exciting at 358 nm and recording the fluorescence emission at 430 nm, with slits of 9 to 10 nm for the excitation and the emission and a gain of 100 to 150, depending on the cases.
# Results. The CMC of the detergents is the concentration starting from which they associate with one another to form micelles, in which, in aqueous solution, the hydrophobic portions are grouped together at the center and the hydrophilic regions are exposed to the solvent. […] A typical result obtained with a compound 3.7 provided with a C13 (3.7e) or C18 ([…]) aliphatic chain is illustrated in FIG. 4.
# [3] = biological target: T1, AcrB (Escherichia coli, UniProt P31224); test: Extraction of AcrB from membranes (SDS-PAGE of supernatant); design: species or system bacterial; same expression system (E. coli C41DE3); conditions: detergent 10 g/l unless indicated otherwise; 2 h at 4° C.
# T1 construct: made in house; host or cells: E. coli C41(DE3)
# T1 sequence (P31224 whole entry): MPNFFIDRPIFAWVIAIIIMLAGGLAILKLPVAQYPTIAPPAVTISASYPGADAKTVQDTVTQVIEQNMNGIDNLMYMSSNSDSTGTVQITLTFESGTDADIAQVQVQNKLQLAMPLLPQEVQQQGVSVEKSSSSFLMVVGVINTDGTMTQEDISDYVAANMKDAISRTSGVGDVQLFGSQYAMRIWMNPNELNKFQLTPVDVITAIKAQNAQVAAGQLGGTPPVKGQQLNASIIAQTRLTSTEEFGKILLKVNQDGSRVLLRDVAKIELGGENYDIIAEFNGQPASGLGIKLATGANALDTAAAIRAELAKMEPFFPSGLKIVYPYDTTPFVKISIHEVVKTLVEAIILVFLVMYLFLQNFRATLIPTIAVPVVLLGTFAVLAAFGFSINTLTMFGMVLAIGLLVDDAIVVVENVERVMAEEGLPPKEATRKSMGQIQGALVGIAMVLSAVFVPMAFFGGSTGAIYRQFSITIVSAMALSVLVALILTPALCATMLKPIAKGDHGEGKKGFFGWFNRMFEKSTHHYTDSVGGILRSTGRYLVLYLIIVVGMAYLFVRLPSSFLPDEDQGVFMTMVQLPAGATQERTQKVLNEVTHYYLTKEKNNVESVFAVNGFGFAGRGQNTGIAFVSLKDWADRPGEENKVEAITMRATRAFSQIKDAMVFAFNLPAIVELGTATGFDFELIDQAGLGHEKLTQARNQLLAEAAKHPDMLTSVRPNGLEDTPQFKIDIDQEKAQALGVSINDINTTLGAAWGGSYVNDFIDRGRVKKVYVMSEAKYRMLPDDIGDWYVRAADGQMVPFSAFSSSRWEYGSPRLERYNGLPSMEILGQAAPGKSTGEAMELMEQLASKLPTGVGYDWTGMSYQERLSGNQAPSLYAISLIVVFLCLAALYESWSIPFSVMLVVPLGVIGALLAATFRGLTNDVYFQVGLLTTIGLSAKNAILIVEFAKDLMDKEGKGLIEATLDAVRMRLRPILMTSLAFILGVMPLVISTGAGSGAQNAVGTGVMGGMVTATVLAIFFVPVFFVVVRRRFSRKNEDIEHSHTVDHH
# Experimental: (§1) FIG. 6 depicts the extraction of the membrane proteins BmrA (panels A and C) and AcrB (panels B and D) using commercial detergents and the molecules of the invention (panels A and B, from left to right): SDS, DDM, FC12, TX100, compounds of the invention 1.4, 1.5, 2.3a, 2.3b, 2.3c, 2.3d, 2.3e, 2.3f, 2.3g, 2.3h, 2.3i, 3.7a, 3.7b; panel C: compounds of the invention 3.7c 0.8%, 3.7d 0.16%, 3.7e 0.8%, 3.7f 0.3%, 3.7g 0.4%, 3.7h 0.2%, 3.7i 0.07%, 3.7j 0.09%, 3.7k, 3.7l, 0.25%, 3.9a, 4.5a, 4.5b, 4.5c, 4.5d 0.34%, 4.6a, 4.6b, 4.6c, 4.6d, 5.3a, 5.3b, 5.3c 0.3%, 5.3d 0.3%; panel D: 3.7c, 3.7d, 3.7e, 3.7f, 3.7h, 3.7i 0.1%, 3.7j, 3.7k, 3.7l, 3.9a, 4.5a, 4.5b, 4.5c, 4.5d, 4.6a, 4.6b, 4.6c, 4.6d. The detergents are added at 10 g/l (1%), unless indicated otherwise. The equivalent of 20 μg of proteins of the extracted fraction after centrifugation at 100 000×g for 30 min is deposited on 10% SDS-PAGE, stained with Coomassie blue after migration. BmrA migrates in its monomeric form to the level of the 55 kDa band; AcrB migrates in its monomeric form to the level of the 100 kDa band. SDS=sodium dodecyl sulfate; DDM=β-D-dodecyl maltoside; FC12=foscholine-12; TX100=triton X-100.
# (§2) The extraction capacity of the detergents of the series is tested on membranes in which BmrA or AcrB are strongly expressed. The extraction with the clips (molecules of the invention) is compared to that obtained with commercial detergents, used as reference.
# (§3) Procedure. BmrA represents 25% of the proteins present in the overexpression system used (E. coli, C41DE3). These membranes are prepared as described previously (Matar-Merheb, R. et al. ([11])). The membranes containing AcrB (approximately 20% of the membrane proteins, same expression system as BmrA) were prepared as described previously (Seeger, M. A. et al. ([21])). The detergents are used at 10 g/l unless indicated otherwise, and the proteins diluted at 2 g/l in a 20 mM Tris-HCl buffer, pH 8.0, 100 mM NaCl, 15% glycerol, with protease inhibitors (Roche) added thereto at an amount of one tablet/100 ml. The mixture (T) is incubated for 2 h at 4° C. then centrifuged for 1 h at 4° C. at 100 000×g in order to separate the extracted fraction (supernatant, S) from that which is not extracted (pellet). The supernatants are deposited on 10% SDS-PAGE and stained with Coomassie blue after migration. The foscholine 12, DDM and LMNG originate from Anatrace, the SDS and Triton X100 originate from Sigma-Aldrich.
# [4] = biological target: T2, BmrA (Bacillus subtilis, UniProt O06967); test: Extraction of BmrA from membranes (SDS-PAGE of supernatant); design: species or system bacterial; overexpressed in E. coli C41DE3; conditions: detergent 10 g/l unless indicated otherwise; 2 h at 4° C.
# T2 construct: His tag; made in house; host or cells: E. coli C41(DE3)
# T2 sequence (O06967 whole entry): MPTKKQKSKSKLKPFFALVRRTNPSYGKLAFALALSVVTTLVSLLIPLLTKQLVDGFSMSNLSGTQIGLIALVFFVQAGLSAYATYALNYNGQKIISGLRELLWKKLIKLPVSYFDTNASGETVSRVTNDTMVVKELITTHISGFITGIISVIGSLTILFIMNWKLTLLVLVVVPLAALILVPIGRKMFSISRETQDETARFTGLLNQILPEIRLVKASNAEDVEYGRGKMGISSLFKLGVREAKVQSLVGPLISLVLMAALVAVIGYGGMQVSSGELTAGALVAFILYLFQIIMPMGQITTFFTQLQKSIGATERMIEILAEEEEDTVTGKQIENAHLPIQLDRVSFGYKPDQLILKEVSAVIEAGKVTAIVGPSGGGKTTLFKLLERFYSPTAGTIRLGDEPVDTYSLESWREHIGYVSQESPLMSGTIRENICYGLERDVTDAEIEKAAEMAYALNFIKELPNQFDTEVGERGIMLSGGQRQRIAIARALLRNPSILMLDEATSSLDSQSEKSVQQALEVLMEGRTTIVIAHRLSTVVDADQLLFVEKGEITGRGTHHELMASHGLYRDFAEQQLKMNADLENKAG
# Experimental: as §1, §2, §3
# [5] = biological target: T2, BmrA; test: Size exclusion chromatography of BmrA after detergent exchange; conditions: Superdex 200 5/150, 2 CMC of detergent, 0.3 ml/min
# Experimental: The membrane fraction was extracted and purified in DDM by Ni-NTA metal affinity and Superdex 200 size exclusion, before being reloaded on Ni-NTA in order to exchange the DDM either with itself or with the compound 3.7c. Each pool was subsequently loaded onto a 3 ml Superdex S200 5/150 size exclusion column and eluted in the presence of 2 CMC of the same detergent, as indicated. The proteins are detected by absorbance at 280 nm.
# The capacity of the compounds of the invention to maintain the membrane proteins in a native state was exemplified with the compound 3.7c of the invention, monitored by size exclusion chromatography and compared to the reference detergent DDM.
# Procedure: BmrA was extracted in DDM and purified by Ni-NTA affinity chromatography as described in example 13, then loaded onto a Superdex 200 10/300 size exclusion column and eluted with 50 mM Hepes-HCl pH 8.0, 100 mM NaCl, 0.4 mM DDM (2×CMC). The fractions containing BmrA were pooled and separated into several aliquots (˜100 μg) kept at 4° C. One aliquot was subsequently reloaded onto an affinity column containing 1 ml of resin. The DDM was then exchanged against 10 volumes of Hepes-NaCl buffer containing either 2 CMC of DDM (control experiment) or 2 CMC of compound 3.7c (2 mM). BmrA was subsequently eluted in the respective buffers with 100 mM of imidazole added. The fractions containing the proteins were combined and concentrated on 50 kDa amicon (regenerated cellulose) to 50 μl, and were then deposited on a 3 ml Superdex 200 5/150 size exclusion column, equilibrated in 50 mM Hepes-HCl pH 8.0, 100 mM NaCl, and 2 CMC of DDM (0.4 mM) or 3.7c (2 mM). The elution was subsequently carried out at 0.3 ml/min in the respective buffers and the BmrA detected at 280 nm.
Structure (SMILES),"Ø, nm [1]",CMC [2] [mM],extraction of AcrB [3],extraction of BmrA [4],"CMC (breakage in the slope of DPH fluorescence, FIG. 4) ([2]; triplicates) [µM]",elution volume of BmrA [5] [mL]
CCCCCCCCCCCCCCCCCCC(=O)N[C@@H](COCc1cn(CCO[C@@H]2OC(CO)[C@@H](O)C(O)C2O)nn1)C(=O)N[C@H](CCC(=O)O)C(=O)O (stereo partly shown) [Compound 3.7d],5.5 nm,0.02,extracting,partially extracting,–,–
CCCCCCCCCCCCCCCCCCC(=O)N[C@@H](COCc1cn(CCO[C@@H]2OC(CO)[C@@H](O[C@H]3OC(CO)[C@@H](O)C(O)C3O)C(O)C2O)nn1)C(=O)N[C@H](CCC(=O)O)C(=O)O (stereo partly shown) [Compound 3.7f],4.0 nm,0.02,extracting,extracting,20,–
CCCCCCCCCCCCCCCCCCC(=O)N[C@@H](COCc1cn(CCOCCOCCOCCOCCOCCOC)nn1)C(=O)N[C@H](CCC(=O)O)C(=O)O [Compound 3.7h],3-4 nm,0.01,extracting,extracting,–,–
"CCCCCCCCCCCCO[C@@H]1O[C@H](CO)[C@@H](O[C@H]2O[C@H](CO)[C@@H](O)[C@H](O)[C@H]2O)[C@H](O)[C@H]1O [DDM, n-dodecyl β-d-maltoside, reference compound]",–,–,solubilize,solubilize,–,~1.6
